Tests used:
E. coli UTI 89 = experiment: Mouse urinary tract infection model, E. coli UTI 89; type: in vivo; settings: for Bladder Terminal Burden / Kidney Terminal Burden / Urine Terminal Burden: mice, 96 h post infection
Method: (§1) Compound A and its prodrugs as disclosed herein were tested in an in vivo mouse model for Urinary Tract Infection. Briefly, mice were infected with E. coli UTI 89 to cause a UTI infection and were treated with compounds disclosed herein.
(§2) Five days prior to infection, C3H/HeNR female mice were preconditioned with drinking water containing 5% glucose. Mice were rendered unconscious using parenteral anaesthesia (ketamine/medetomidine) then 0.05 mL of a bacterial suspension of E. coli UTI 89 (1.2×10^9 CFU/mL (6.2×10^7 CFU/mouse) was administered transurethrally into the bladder to cause an ascending UTI infection.
IV or PO treatment was started 24 h post infection with 3, 10, 15 mg/kg/dose IV Compound A; 3, 10, 15.30 mg/kg/dose IV Compound 1; 3, and 10 mg/kg/dose IV Compound 2; and 30 mg/kg/dose oral of either Compound 1 or 2 administered every 12 hours for 3 days (six doses total). Ciprofloxacin was given as a control at 10 mg/kg/dose IV every 12 hours. Compound A was formulated in 10% DMSO, 5% Cremophor, 85% SFI; the remaining compounds used a sterile phosphate-buffered saline (PBS) formulation. Each group was comprised of five mice each.
(§3) Urine, bladder, and kidney were harvested at 24 h (pre-treatment group only) and 96 h post infection and quantitatively cultured.

E. coli = experiment: MIC against gram-negative bacterial cell lines (E. coli); type: cell-based; settings: Escherichia coli
S. aureus = experiment: Inhibition of gram-positive bacterial cell lines; type: cell-based
[1] = Solubility under physiological conditions; type: physicochemical; settings: for example at pH 7.4
K. pneumoniae = experiment: MIC against gram-negative bacterial cell lines (K. pneumoniae); type: cell-based; settings: Klebsiella pneumoniae
Thermal solubility = type: physicochemical; settings: aqueous buffer, thermodynamic from solid; 100 mM potassium phosphate buffer pH 7.4, 24 h, 25° C.
Method: Solubility of the compounds was assessed in 100 mM potassium phosphate buffer at pH 7.4 after 24 hours at room temperature.
Accurately weighed K2HPO4 (2.79 g) and KH2PO4 (0.54 g) were dissolved in 90 mL of Milli-Q water and mixed well. Volume was made upto 200 mL with Milli-Q water and mixed well. The prepared phosphate buffer was stored at 2-8° C. and used within a month.
Approximately 30 mg of test compound was added to approximately 1 mL of the potassium phosphate buffer, pH 7.4. If the visual inspection indicated precipitation, no further compound is added. If the visual inspection indicated a clear solution, further increments of compound were added until the solution was no longer clear.
Test compounds and assay controls (caffeine) were further incubated for 24 h at 25° C. temperature on a thermomixer at a shaking speed of 1200 rpm. After incubation, the samples (200 μL) were transferred to a filtration plate to which a plate was attached at bottom for collecting the filtrate. The plate was centrifuged at 4000 rpm for 2 min and the filtrate was collected in the attached bottom plate. The filtrates were diluted using filtered buffer based on the initial amount of compound added. All samples were analysed by HPLC-UV method against 8 point calibration curve with concentrations ranging from 2.5 μg/mL to 1000 μg/mL.

K. pneumoniae BAA-1705 = experiment: Mouse urinary tract infection model, K. pneumoniae BAA-1705; type: in vivo; settings: for Bladder Terminal Burden / Kidney Terminal Burden / Urine Terminal Burden: mice, 96 hours
Method: as §1, §2
[…]; […]; […]; […] for 3 days (six doses total). Ciprofloxacin was given as a control at 10 mg/kg/dose IV every 12 hours. Compound A was formulated in 10% DMSO, 5% Cremophor, 85% SFI; the remaining compounds used a sterile phosphate-buffered saline (PBS) formulation. Each group was comprised of five mice each.
as §3
The experiment was repeated using K. pneumoniae BAA-1705 (MDR; MIC90 strain). Table 5 and FIG. 2 summarize the results, showing the average terminal burden of K. pneumoniae BAA-1705 in urine, bladder, and kidney at the conclusion of the study (96 hours).

[2] = 3 mg/kg/dose IV every 12 hours for 3 days
[3] = 10 mg/kg/dose IV every 12 hours for 3 days
[4] = 15 mg/kg/dose IV every 12 hours for 3 days
[5] = E. coli UTI 89, mice, IV administration

N#CC1CN(C[C@@H](Cc2nc[nH]c(=O)c2O)c2ccc(C#Cc3ccc(CN4CCOCC4)cc3)cc2)C1 [Compound A, (S)-1-(3-(5-hydroxy-6-oxo-1,6-dihydropyrimidin-4-yl)-2-(4-((4-(morpholinomethyl)phenyl)ethynyl)phenyl)propyl)azetidine-3-carbonitrile]
Bladder Terminal Burden (E. coli UTI 89; [2]): 2.57 × 10^5 CFU/mL | Kidney Terminal Burden (E. coli UTI 89; [2]): 3.72 × 10^3 CFU/mL | Urine Terminal Burden (E. coli UTI 89; [2]): 3.03 × 10^5 CFU/mL | Bladder Terminal Burden (E. coli UTI 89; [3]): 3.48 × 10^5 CFU/mL | Kidney Terminal Burden (E. coli UTI 89; [3]): 4.44 × 10^2 CFU/mL | Urine Terminal Burden (E. coli UTI 89; [3]): 6.26 × 10^4 CFU/mL | Bladder Terminal Burden (E. coli UTI 89; [4]): 2.62 × 10^5 CFU/mL | Kidney Terminal Burden (E. coli UTI 89; [4]): 1.21 × 10^2 CFU/mL | Urine Terminal Burden (E. coli UTI 89; [4]): 3.78 × 10^3 CFU/mL | bacterial burden in urine relative to vehicle-treated controls (E. coli UTI 89; E. coli UTI 89, mice): statistically significant reductions in bacterial burden in urine | bacterial burden in bladder relative to vehicle-treated controls (E. coli UTI 89; [5]): reductions in bacterial burden in bladder | bacterial burden in kidney relative to vehicle-treated control (E. coli UTI 89; [5]): statistically significant reductions in bacterial burden in kidney | MIC (E. coli): < 1 µg/mL | inhibition of gram-positive bacterial cell lines (S. aureus): does not inhibit | solubility [1]: < 1000 µg/mL | MIC (K. pneumoniae): < 1 µg/mL | solubility at 24 h (Thermal solubility): < 50 µg/mL | Bladder Terminal Burden (K. pneumoniae BAA-1705; 10 mg/kg/dose IV): 9.29 × 10^1 CFU/mL | Kidney Terminal Burden (K. pneumoniae BAA-1705; 10 mg/kg/dose IV): 3.47 × 10^2 CFU/mL | Urine Terminal Burden (K. pneumoniae BAA-1705; 10 mg/kg/dose IV): 2.72 × 10^0 CFU/mL | Bladder Terminal Burden (K. pneumoniae BAA-1705; 30 mg/kg/dose IV): BLoD | Kidney Terminal Burden (K. pneumoniae BAA-1705; 30 mg/kg/dose IV): 7.48 × 10^1 CFU/mL | Urine Terminal Burden (K. pneumoniae BAA-1705; 30 mg/kg/dose IV): 7.41 × 10^3 CFU/mL | Bladder Terminal Burden (K. pneumoniae BAA-1705; 60 mg/kg/dose IV): BLoD | Kidney Terminal Burden (K. pneumoniae BAA-1705; 60 mg/kg/dose IV): 3.17 × 10^0 CFU/mL | Urine Terminal Burden (K. pneumoniae BAA-1705; 60 mg/kg/dose IV): BLoD | Bladder Terminal Burden (K. pneumoniae BAA-1705; 90 mg/kg/dose PO): BLoD | Kidney Terminal Burden (K. pneumoniae BAA-1705; 90 mg/kg/dose PO): 3.01 × 10^1 CFU/mL | Urine Terminal Burden (K. pneumoniae BAA-1705; 90 mg/kg/dose PO): 7.06 × 10^0 CFU/mL | bacterial burden in kidney relative to vehicle-treated controls and the ciprofloxacin control (K. pneumoniae BAA-1705; K. pneumoniae BAA-1705, mice): statistically significant reductions in bacterial burden in kidney | bacterial burden in urine relative to vehicle-treated controls and the ciprofloxacin control (K. pneumoniae BAA-1705; K. pneumoniae BAA-1705, mice, except for the 30 mg/kg IV Compound A experiment): statistically significant reductions in bacterial burden in urine

Source: patent publication US12187754B2, “LpxC inhibitors and uses thereof” (Blacksmith Medicines, Inc., priority 2021, dated 2025)
